Laboratory results taken from patent US12371454B2, “Cyclic peptide compound having Kras inhibitory action” (priority 2019, dated 2025).
Positions of bridges follow the written chain, without caps; N, C: chain ends. Non-standard residues stand in square brackets, D forms with d. Residues, ends and D or L forms follow the SMILES beside them. *: point of attachment. hPhe(3-Cl-4-CF3) = N[C@@H](CCc1ccc(C(F)(F)F)c(Cl)c1)C(=O)O; NMePhe(2-CF3) = CN[C@@H](Cc1ccccc1C(F)(F)F)C(=O)O; NMePhe(3-Cl) = CN[C@@H](Cc1cccc(Cl)c1)C(=O)O; NMePhe(2-Me) = CN[C@@H](Cc1ccccc1C)C(=O)O; NMeAla(cPent) = CN[C@@H](CC1CCCC1)C(=O)O; NMeAla(cPr) = CN[C@@H](CC1CC1)C(=O)O; NMehPhe = CN[C@@H](CCc1ccccc1)C(=O)O; NMeCha = CN[C@@H](CC1CCCCC1)C(=O)O; NMeChg = CN[C@H](C(=O)O)C1CCCCC1; NMeF = CN[C@@H](Cc1ccccc1)C(=O)O; NMeD = CN[C@@H](CC(=O)O)C(=O)O; NMeL = CN[C@@H](CC(C)C)C(=O)O; NMeV = CN[C@H](C(=O)O)C(C)C; d(β3hA) = C[C@@H](N)CC(=O)O; NMeA = CN[C@@H](C)C(=O)O; Piperidide = C1CCN(*)CC1; Ac5c = NC1(C(=O)O)CCCC1; Aze = O=C(O)[C@@H]1CCN1; Sar = CNCC(=O)O

Target: T1, Kras and SOS1 (biotin-tagged human Kras loaded with GDP, His-tagged human SOS1) (Homo sapiens, UniProt P01116, G12D)
T1 construct: made in house; host or cells: E. coli (stated for Kras only)
T1 sequence (P01116 1-188 isoform P01116-2 G12D): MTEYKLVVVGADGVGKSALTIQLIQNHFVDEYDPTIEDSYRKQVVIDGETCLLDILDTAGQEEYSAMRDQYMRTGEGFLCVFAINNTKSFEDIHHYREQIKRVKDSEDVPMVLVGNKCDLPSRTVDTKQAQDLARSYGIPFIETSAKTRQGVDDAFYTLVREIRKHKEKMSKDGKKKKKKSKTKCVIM
Test: Protein-protein interaction inhibition between Kras and SOS1 (KrasGl2D-SOS PPI) using AlphaScreen
Type: binding
Settings: AlphaScreen; biotin-tagged human Kras loaded with GDP, His-tagged human SOS1; read-out: KRAS G12D-SOS PPI IC50
Summary of the method: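 Energy transfer from nickel-chelate donor beads bound to His-SOS1 to streptavidin acceptor beads bound to biotin-Kras, expressed in E. coli and loaded with GDP after purification, was monitored. Donors were excited at 680 nm; singlet oxygen reaching acceptors gave emission read at 520-620 nm.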

| Compound | IC50 |
| --- | --- |
| CC[C@H](C)[C@@H]1NC(=O)[C@H](CC(C)C)N(C)C(=O)C[C@@H](C)NC(=O)[C@H](C(C)C)N(C)C(=O)C2(CCCC2)NC(=O)[C@@H]2CCCN2C(=O)[C@H](CCc2ccc(C(F)(F)F)c(Cl)c2)NC(=O)CN(C)C(=O)[C@H](Cc2ccccc2)N(C)C(=O)CN(C)C(=O)CN(C)C1=O [Compound 1606] (cyclo([Ac5c][NMeV][d(β3hA)][NMeL]I[Sar][Sar][NMeF][Sar][hPhe(3-Cl-4-CF3)]P)) | 15 nM |
| CC[C@H](C)[C@@H]1NC(=O)[C@H](CC(C)C)N(C)C(=O)C[C@@H](C)NC(=O)[C@H](C(C)C)N(C)C(=O)C2(CCCC2)NC(=O)[C@@H]2CCCN2C(=O)[C@H](CCc2ccc(C(F)(F)F)c(Cl)c2)NC(=O)CN(C)C(=O)[C@H](CC2CCCCC2)N(C)C(=O)[C@@H]2CCN2C(=O)[C@H](CC2CC2)N(C)C1=O [Compound 1612] (cyclo([Ac5c][NMeV][d(β3hA)][NMeL]I[NMeAla(cPr)][Aze][NMeCha][Sar][hPhe(3-Cl-4-CF3)]P)) | 390 nM |
| CC[C@H](C)[C@@H]1NC(=O)[C@H](CC(C)C)N(C)C(=O)C[C@@H](C)NC(=O)[C@H](C(C)C)N(C)C(=O)C2(CCCC2)NC(=O)[C@@H]2CCCN2C(=O)[C@H](CCc2ccc(C(F)(F)F)c(Cl)c2)NC(=O)CN(C)C(=O)[C@H](Cc2ccccc2C(F)(F)F)N(C)C(=O)CN(C)C(=O)CN(C)C1=O [Compound 1613] (cyclo([Ac5c][NMeV][d(β3hA)][NMeL]I[Sar][Sar][NMePhe(2-CF3)][Sar][hPhe(3-Cl-4-CF3)]P)) | 110 nM |
| CC[C@H](C)[C@@H]1NC(=O)[C@H](CC(C)C)N(C)C(=O)C[C@@H](C)NC(=O)[C@H](C(C)C)N(C)C(=O)C2(CCCC2)NC(=O)[C@@H]2CCCN2C(=O)[C@H](CCc2ccc(C(F)(F)F)c(Cl)c2)NC(=O)CN(C)C(=O)[C@H](Cc2ccccc2C)N(C)C(=O)CN(C)C(=O)CN(C)C1=O [Compound 1614] (cyclo([Ac5c][NMeV][d(β3hA)][NMeL]I[Sar][Sar][NMePhe(2-Me)][Sar][hPhe(3-Cl-4-CF3)]P)) | 51 nM |
| CC[C@H](C)[C@@H]1NC(=O)[C@H](CC(C)C)N(C)C(=O)C[C@@H](C)NC(=O)[C@H](C(C)C)N(C)C(=O)C2(CCCC2)NC(=O)[C@@H]2CCCN2C(=O)[C@H](CCc2ccc(C(F)(F)F)c(Cl)c2)NC(=O)CN(C)C(=O)[C@H](CC2CCCCC2)N(C)C(=O)[C@@H]2CCN2C(=O)[C@H](CC2CCCC2)N(C)C1=O [Compound 1618] (cyclo([Ac5c][NMeV][d(β3hA)][NMeL]I[NMeAla(cPent)][Aze][NMeCha][Sar][hPhe(3-Cl-4-CF3)]P)) | 290 nM |
| CC[C@H](C)[C@@H]1NC(=O)[C@H](C)N(C)C(=O)C[C@@H](C(=O)N2CCCCC2)N(C)C(=O)[C@H](C(C)C)N(C)C(=O)C2(CCCC2)NC(=O)[C@@H]2CCCN2C(=O)[C@H](CCc2ccc(C(F)(F)F)c(Cl)c2)NC(=O)CN(C)C(=O)[C@H](CC2CCCCC2)N(C)C(=O)[C@@H]2CCN2C(=O)[C@H](C2CCCCC2)N(C)C1=O [Compound 1622] ([NMeA]I[NMeChg][Aze][NMeCha][Sar][hPhe(3-Cl-4-CF3)]P[Ac5c][NMeV][NMeD]-Piperidide; lactam N-11) | 130 nM |
| CC[C@H](C)[C@@H]1NC(=O)[C@H](CC(C)C)N(C)C(=O)C[C@@H](C)NC(=O)[C@H](C(C)C)N(C)C(=O)C2(CCCC2)NC(=O)[C@@H]2CCCN2C(=O)[C@H](CCc2ccc(C(F)(F)F)c(Cl)c2)NC(=O)CN(C)C(=O)[C@H](Cc2cccc(Cl)c2)N(C)C(=O)CN(C)C(=O)CN(C)C1=O [Compound 1623] (cyclo([Ac5c][NMeV][d(β3hA)][NMeL]I[Sar][Sar][NMePhe(3-Cl)][Sar][hPhe(3-Cl-4-CF3)]P)) | 54 nM |
| CC[C@H](C)[C@@H]1NC(=O)[C@H](CC(C)C)N(C)C(=O)C[C@@H](C(=O)N2CCCCC2)N(C)C(=O)[C@H](C(C)C)N(C)C(=O)C2(CCCC2)NC(=O)[C@@H]2CCCN2C(=O)[C@H](CCc2ccc(C(F)(F)F)c(Cl)c2)NC(=O)CN(C)C(=O)[C@H](CC2CCCCC2)N(C)C(=O)[C@@H]2CCN2C(=O)[C@H](CCc2ccccc2)N(C)C1=O [Compound 1624] ([NMeL]I[NMehPhe][Aze][NMeCha][Sar][hPhe(3-Cl-4-CF3)]P[Ac5c][NMeV][NMeD]-Piperidide; lactam N-11) | 92 nM |
| CC[C@H](C)[C@@H]1NC(=O)[C@H](CC(C)C)N(C)C(=O)C[C@@H](C)NC(=O)[C@H](C(C)C)N(C)C(=O)C2(CCCC2)NC(=O)[C@@H]2CCCN2C(=O)[C@H](CCc2ccc(C(F)(F)F)c(Cl)c2)NC(=O)CN(C)C(=O)[C@H](CCc2ccccc2)N(C)C(=O)CN(C)C(=O)CN(C)C1=O [Compound 1627] (cyclo([Ac5c][NMeV][d(β3hA)][NMeL]I[Sar][Sar][NMehPhe][Sar][hPhe(3-Cl-4-CF3)]P)) | 15 nM |
